# Data as given in US8389698B2, “Tanaproget derivatives, metabolites, and uses thereof” (Wyeth LLC, priority 2004, dated 2013).
# Legend:
# [1] = Metabolite identification in liver microsomes; type: in vitro ADME; settings: male and female rat, dog, and human liver microsomes
# Protocol: (§1) The glucuronide of tanaproget was prepared in male rat liver microsomes, and the structure was identified as a S-glucuronide conjugate by liquid chromatography (LC)/mass spectrometry (MS) and nuclear magnetic resonance (NMR) spectroscopy. […] This S-glucuronide can also be synthetically prepared simultaneously with a N-glucuronide. The two synthetic glucuronides could be separated by HPLC and their structures were all characterized by LC/MS and NMR spectroscopy. In the following scheme, the NSP-989 terminology is used in the place of tanaproget.
# Incubations (100 mL) were performed with tanaproget (40 μM), UDPGA (5 mM), magnesium chloride (10 mM), and male rat liver microsomes (1.5 mg/mL), in 0.1 M potassium phosphate buffer, pH 7.4 at 37° C. The samples were pre-incubated for 1 minute at 37° C., and the reactions were initiated by the addition of UDPGA. The sample was cooled using an ice bath to stop the reaction after 3 hours. Unreacted tanaproget was removed from the samples by two extractions with diethyl ether (200 mL×2).
# [2] = tested on: Glusulase (glucuronidase); experiment: Enzymatic hydrolysis of tanaproget glucuronide conjugate in pooled urine by Glusulase; type: in vitro ADME
# Protocol: In order to confirm that that the tanaproget glucuronide derivative is a prodrug when delivered to patients, the ability of the glucuronide conjugate to be enzymatically cleaved by a glucuronidase which is native to the gastrointestinal tract in humans was used in the following assay.
# Pooled urine samples (4-8 hr) from healthy women were hydrolyzed by Glusulase®. Aliquots (1 mL) of pooled urine were adjusted to pH 5 with 0.5 mL of 0.6 M sodium acetate buffer. The diluted urine was mixed with Glusulase® (9,000 units/mL, 100 μL) and incubated at 37° C. for 1 hr with gentle shaking. The reaction was stopped by the addition of 2 mL of acetone and the precipitate was removed by centrifugation. The supernatant was dried under nitrogen in a TurboVap™ (Caliper Life Sciences, Hopkinton, Mass.).
# [3] = Drug related components in plasma; type: in vivo; settings: rat, dog, and human plasma
# Protocol: as §1
# [4] = tested on: alkaline phosphatase activity in T47D cells; experiment: Alkaline phosphatase activity in T47D cells; type: cell-based
# Protocol: Tanaproget glucuronides are a prodrug of tanaproget, a first-in-class non-steroidal progesterone receptor agonist for use primarily in contraception. The effect of tanaproget glucuronides on alkaline phosphase activity in T47D cells is analyzed as follows.
# Culture medium: DMEM:F12 (1:1) (GIBCO, BRL) supplemented with 5% (v/v) charcoal stripped fetal bovine serum (not heat-inactivated), 100 U/mL penicillin, 100 μg/mL streptomycin, and 2 mM GlutaMax (GIBCO, BRL).
# Alkaline phosphatase assay buffer: I. 0.1M Tris-HCl, pH 9.8, containing 0.2% Triton X-100, 0.1M Tris-HCl, pH 9.8, containing 4 mM p-nitrophenyl phosphate (Sigma).
# Frozen T47D cells are thawed in a 37° C. water bath and diluted to 280,000 cells/mL in culture medium. To each well in a 96-well plate (Falcon, Becton Dickinson Labware), 180 μl of diluted cell suspension is added.
# Twenty μl of reference or test compounds diluted in the culture medium is then added to each well. The cells are incubated at 37° C. in a 5% CO2 humidified atmosphere for 24 hours. For high throughput screening, one concentration of each compound will be tested at 0.3 μg/mL. […]
# For reference and test compounds, a dose response curve is generated for dose vs. the rate of enzyme reaction (slope). […] EC50 values are calculated from the retransformed values. […]
structure (smiles),measurement,setting,value
"Cn1c(C#N)ccc1-c1ccc2c(c1)C(C)(C)OC(SC1OC(C(=O)O)C(O)C(O)C1O)=N2 [Tanaproget S-glucuronide, S-(β)-D-glucuronide of tanaproget]",abundance as metabolite of tanaproget in liver microsomes,[1],major metabolite
same,conversion of glucuronide into tanaproget by Glusulase,"[2]; pooled urine (4-8 hr) from healthy women, pH 5, Glusulase 9,000 units/mL, 37° C., 1 hr, HPLC and LC/MS",confirmed the conversion of glucuronide into parent drug tanaproget
same,conversion of glucuronide into tanaproget in control incubations,"[2]; same conditions without Glusulase, or with Glusulase and 10 mM saccharolactone (β-glucuronidase inhibitor)",no conversion of glucuronide conjugate into tanaproget was observed
same,abundance as drug related component in plasma,[3],major drug related component
same,EC50,"[4]; Homo sapiens, 24 hours treatment",0.1 nM
same,efficacy as compared to progesterone,"[4]; alkaline phosphatase, relative to progesterone",60%
